Results from patent US20230130579A1, “REGULATION OF POST-ISCHEMIC INFLAMMATORY RESPONSE: A NOVEL FUNCTION OF TYROSINE PHOSPHATASE STEP” (UNM Rainforest Innovations, priority 2020, published 2023).

How the values were obtained:
Format in all cases: cell-based
PGE2 = PGE2 release into culture medium by ELISA, glutamate-treated neuron cultures from STEP KO mice; conditions: STEP KO mice neurons; 50 μM glutamate; 2 h; MK801 5 μM, SB203580 5 μM, CAY10404 100 nM, Bengamide B 500 nM
Method: (§1) Cell culture and stimulation: For cell culture studies adult WT male and female mice and STEP KO male and female mice were mated to generate timed pregnant female mice. The males were removed from the females after 24 h period, which was considered gestational day 1. Pregnancy was verified by the presence of vaginal plugs and/or weight gain. Primary neuronal cultures were obtained from 15-day-old mice embryos as described previously (Deep et al., 2019). Briefly, the striatum and the adjoining cortex was dissected, the tissue dissociated mechanically and resuspended in Dulbecco's modified Eagle's medium/F-12 (1:1) containing 5% fetal calf serum. Cells (6×10^6 cells/dish) were plated on poly-D-lysine-coated tissue culture dishes (BD Biosciences) and grown for 12-14 days at 37° C. in a humidified atmosphere (95:5% air:CO2 mixture). For receptor stimulation cells were treated with glutamate or NMDA for the indicated times and then processed for immunoblot analysis. Glycine concentration in the medium during glutamate treatment was 10 μM. In some experiments, DL-2-amino-5-phosphonopentanoic acid (APV, 200 μM), MK-801 (5 μM), SB203580 (5 μM), CAY10404 (100 nM) or Bengamide B (500 nM) were added 5 min 10 min before addition of glutamate. Some cultures were treated with the TAT-STEP-myc peptide (4 μM) prior glutamate treatment.
For measurement of PGE2 and soluble CX3CL1 levels released from neurons, culture medium was collected from each experimental plate and centrifuged at 200 g for 5 min to remove cellular debris. […] PGE2 level was assessed using the PGE2 enzyme-linked immunosorbent assay (ELISA) kit (Cat #: K051-H1) from Arbor assays (Ann Arbor, Mich., USA), according to the manufacturer's instructions. Soluble CX3CL1 level was assessed using the ELISA kit (Cat #: MCX310) from R&D systems (Minneapolis, Minn., USA), according to the manufacturer's instructions.
To evaluate the effect of STEP gene deletion on glutamate-mediated PGE2 release in subsequent studies neuron cultures from WT or STEP KO mice were treated with 50 μM glutamate (Glu) for 20 min and then maintained in its original medium for the specified times (post-glutamate time: 2 h and 4 h). […] Equal amount of culture medium from each sample was analyzed for PGE2 levels using ELISA. Values are expressed as mean±SEM. *, indicates significant difference from untreated control in STEP KO cultures (p<0.05); ^¶, indicates significant difference from glutamate treated STEP KO cultures (p<0.05). […]
FIGS. 9A-9D show the role of NFκB activation in glutamate induced COX2 expression and PGE2 release. […] Quantification of IκB-α and COX-2 are represented as mean±SEM. *, indicates significant difference from untreated control in STEP KO culture (p<0.05); ^¶, indicates significant difference from glutamate treated STEP KO culture. […]

COX2 = COX2 protein level by immunoblot in glutamate-treated neuron cultures from STEP KO mice; conditions: STEP KO mice neurons; 50 μM glutamate 20 min; post-glutamate time 2 h; MK801 5 μM, SB203580 5 μM, Bengamide B 500 nM, TAT-STEP-myc 4 μM
Method: as §1, with “In some experiments, DL-2-amino-5-phosphonopentanoic acid (APV, 200 μM), MK-801 (5 μM), SB203580 (5 μM), CAY10404 (100 nM) or Bengamide B (500 nM) were added 5 min 10 min before addition of glutamate. Some cultures were treated with the TAT-STEP-myc peptide (4 μM) prior glutamate treatment.” left out
In a parallel series of experiments, we further evaluated the expression of COX2, which is involved in the conversion of AA to prostanoids. […] Cell lysates with equal amount of protein from each sample was analyzed by immunoblotting with anti-COX2 (upper panel) or anti-β-tubulin (lower panel) antibodies. Quantification of COX2 is represented as mean±SEM. *, indicates significant difference from untreated control in STEP KO cultures (p<0.05); ^¶, indicates significant difference from glutamate treated STEP KO cultures (p<0.05).
FIGS. 9A-9D show the role of NFκB activation in glutamate induced COX2 expression and PGE2 release. […] (FIG. 9A-C) Cell lysates with equal amount of protein from each sample was analyzed by immunoblotting with (FIG. 9A, B) anti-IκB-α (upper panel) and anti-β-tubulin (lower panel) antibodies, or (C) anti-COX-2 (upper panel) and anti-β-tubulin (lower panel) antibodies. […] (FIG. 9D) Equal amount of culture medium from each sample was analyzed for PGE2 levels using ELISA. […]

cPLA2 = cPLA2 activity assay in glutamate-treated neuron cultures from STEP KO mice; conditions: STEP KO mice neurons; 50 μM glutamate 20 min; MK801 5 μM or SB 203580 5 μM; 2 h after the insult
Method: (§2) Cell culture and stimulation: For cell culture studies adult WT male and female mice and STEP KO male and female mice were mated to generate timed pregnant female mice. The males were removed from the females after 24 h period, which was considered gestational day 1. Pregnancy was verified by the presence of vaginal plugs and/or weight gain. Primary neuronal cultures were obtained from 15-day-old mice embryos as described previously (Deep et al., 2019). Briefly, the striatum and the adjoining cortex was dissected, the tissue dissociated mechanically and resuspended in Dulbecco's modified Eagle's medium/F-12 (1:1) containing 5% fetal calf serum. […]
In FIG. 5A, neuron cultures from WT or STEP KO mice were treated with 50 μM glutamate (Glu) for 20 min and then maintained in its original medium for the specified time (2 h and 4 h). […] Cell lysates with equal amount of protein from each sample was analyzed for cPLA2 activity using enzymatic assay. Values are expressed as mean±SEM. *, indicates significant difference from untreated control in WT cultures (p<0.05); ^Δ, indicates significant difference from untreated control in STEP KO cultures (p<0.05); ^¶, significant difference from 20 min glutamate treatment in STEP KO cultures (p<0.05). […]

IκB-α = assay: IκB degradation (NF-κB activation) by immunoblot in glutamate-treated neuron cultures from STEP KO mice; conditions: STEP KO mice neurons; 50 μM glutamate; 2 h
Method: as §2
Earlier studies have shown that the nuclear factor kappa B (NF-κB) is a key regulator of COX2 expression in different cell types (Yamamoto et al., 1995; Kaltschmidt et al., 2002; Guo et al., 2013; Ackerman et al., 2008; Shi et al., 2015), and the ionotropic glutamate receptors is one of the activators of NF-κB in neurons (Kaltschmidt et al., 2005). To clarify the role of NF-κB in glutamate-NMDAR induced activation of the COX-2-PGE2 signaling pathway in STEP KO mice neurons, we next evaluated the effect of glutamate on IκB degradation, a seminal step in NF-κB activation (Karin and Ben-Neriah 2000; Rajagopal et al., 2019). […]

Structure (SMILES)	glutamate-induced PGE2 release (PGE2)	glutamate-induced increase in COX2 level (COX2)	cPLA2 activity (cPLA2)	glutamate-induced IκB degradation (IκB-α)
CCCCCCCCCCCCCC(=O)O[C@H]1CC[C@H](NC(=O)[C@H](OC)[C@H](O)[C@@H](O)[C@H](O)/C=C/C(C)C)C(=O)N(C)C1 [Bengamide B]	significant reduction	attenuated	–	–
CS(=O)(=O)c1ccc(-c2noc(C(F)(F)F)c2-c2ccccc2)cc1 [CAY10404]	significantly reduced	–	–	–
C[C@]12N[C@H](Cc3ccccc31)c1ccccc12 [MK801, MK-801]	significantly reduced	attenuated	significantly reduced	effectively blocked
C[S+]([O-])c1ccc(-c2nc(-c3ccncc3)c(-c3ccc(F)cc3)[nH]2)cc1 (centres unmarked) [SB 203580, SB203580]	significantly reduced	attenuated	significantly reduced	effectively blocked
